Measurements: patent US20120149724A1, “MODULATING ENDOGENOUS BETA-ENDORPHIN LEVELS” (THE GENERAL HOSPITAL CORPORATION, priority 2009, published 2012)
Entries after “also recorded” stand apart in the source; their conditions may differ.

Tests used:
[1] = test system: C57BL/6 male mice; experiment: analgesic thresholds (von Frey and hot plate assays) over a tail radiation or mock regimen; type: in vivo
Method: Example 4 describes analgesic response changes in response to tail-only radiation exposure. To obtain the data shown in FIGS. 4A and 4B, 8-week old male mice were either exposed to a dose of 5 Gy/day gamma radiation or mock exposed for 6 weeks. Mechanical (FIG. 4A) and thermal (FIG. 4B) analgesic thresholds were measured twice per week over the course of the regimen, and for 2 weeks after the regimen. The threshold testing was performed in the morning before the radiation treatment or mock exposure. The mock exposed mice were either injected with saline 15 minutes before the testing, or with 10 mg/kg naloxone 15 minutes before the testing. The radiation treatment group was divided into 2 subgroups. The first group was given saline injections 15 minutes before the testing. The second group was given a 10 mg/kg naloxone injection 15 minutes before the testing. For all groups of mice, blood was drawn once per week for beta-endorphin measurement. Data for FIG. 4A was obtained from C57BL/6 male mice, and there were 10 mice per treatment group. Data for FIG. 4B was obtained from C57BL/6 male mice, and there were 10 mice per treatment group. An asterisk indicates p<0.05 by t-test. FIGS. 4A and 4B show both mechanical and thermal analgesic thresholds increase over the radiation regimen similarly to plasma beta-endorphin fluctuations (Figure C).
In this assay of mechanical nociceptive threshold, mice were placed on an elevated wire mesh grid, and the plantar surface of the left hind paw was poked with fibers calibrated to different pressures. Mice were each poked 10 times at each pressure at a rate of 1/second, starting with the lowest pressure and stopping at the pressure that elicits a positive response for a given mouse, thus indicating the mechanical nociceptive threshold for that mouse. A positive response was 2/10 responses of paw flinching, fluttering, or licking immediately following the poke. These experiments were performed in mice undergoing daily tail radiation or mock tail radiation as follows.
Prior to the start of the tail radiation regimen, mice were habituated over one week by spending 1 hour/day in individual wire mesh cages on the elevated wire mesh grid. In addition, prior to each measurement, mice spent 30 minutes on the wire mesh grid to habituate before measurements were taken. Two measurements of baseline thresholds were taken on two different days prior to the start of the radiation regimen. During the radiation regimen and for 2 weeks following the end of the regimen, mice were tested twice per week on two different, non-consecutive days. Mice receiving mock treatment and 1 subgroup of mice receiving tail radiation were injected with saline (ip) 15 minutes prior to testing. […]

[2] = test system: chronically UV-irradiated mice; experiment: naloxone-induced somatic symptoms of opiate withdrawal after chronic UVB exposure; type: in vivo; conditions: UVB 50 mJ/cm^2/day for 6 weeks, 2 mg/kg sc, counted over 25 minutes
Method: To obtain the data shown in FIG. 9, mice were either exposed to 50 mJ/cm^2/day UVB radiation, or mock-exposed 5 days per week for 6 weeks. These two groups of mice were divided into subgroups and either injected with a dose of 2 mg/kg naloxone(sc) or saline. […] The symptoms observed include wet dog shake, paw tremor, jumping, grooming, teeth chatter, rearing and diarrhea.
This example assesses physical dependence to opiate agents by evaluating withdrawal symptoms in mice upon acute administration of an opiate antagonist. In mice, symptoms of opiate withdrawal include shaking vigorously (called a “wet-dog shake”), paw tremors, teeth chattering, jumping, rearing, increased grooming, and diarrhea. The occurrence of these symptoms were measured in mice either exposed to 50 mJ/cm^2/day UVB radiation 5 days per week for 6 weeks or mock-exposed on the same schedule. One subgroup of each group of mice was injected with 2 mg/kg subcutaneous naloxone and number of occurrences of each of the above-mentioned symptoms was counted over 25 minutes immediately following naloxone injection. The other subgroup was administered a subcutaneous injection of saline before the 25-minute observation period.

[3] = test system: plasma β-endorphin; experiment: plasma β-endorphin by radioimmunoassay over a tail radiation or mock regimen; type: in vivo, mice
Source text: FIG. 4C illustrates the plasma beta-endorphin fluctuations in the C57BL/6 mice as described in FIGS. 4A and 4B. To obtain the data shown in FIG. 4C, blood was drawn once per week over the 6 week regimen, and for the 2 weeks following. The blood was drawn in the morning prior to the radiation treatment for that day. FIG. 4C uses data obtained by C57BL/6 male mice, 10 mice per treatment group. Mock exposed mice remained stable throughout the regimen.
For all experiments, mice used were in a C57BL/6 background. In all experiments wild type mice were used, and in select experiments mice containing homozygous deletion of the p53 gene (p53−/−) were used. All mice were 8 weeks old at the beginning of each experiment. […] Blood Draws and Preparation for Radioimmunoassay Mice were placed in a standard restrainer. A 30-gauge needle was inserted into the tail vein, and 200 uL of blood was collected in EDTA microvette tubes containing 5 TIU aprotinin. Tubes were maintained on ice at all times. Tubes were spun at 3500 rpm at 4° C. for 20 minutes. Plasma was isolated for β-endorphin measurement by commercially available radioimmunoassay (Phoenix Pharmaceuticals). […]

SMILES: C=CCN1CC[C@]23c4c5ccc(O)c4O[C@H]2C(=O)CC[C@@]3(O)[C@H]1C5 [naloxone]
- sensitivity to mechanical and thermal stimuli ([1]; mock-exposed mice, 10 mg/kg, compared to mock-exposed, saline-treated mice): increased sensitivity to mechanical and thermal stimuli
- effect on radiation-induced changes in mechanical and thermal analgesic thresholds ([1]; tail-irradiated mice 5 Gy/day for 6 weeks, 10 mg/kg 15 minutes before testing, 10 mg/kg): prevented; also recorded: prevents changes in analgesic thresholds
- sensitivity to mechanical and thermal stimuli ([1]; tail-irradiated mice, 10 mg/kg 15 minutes before testing, as the radiation regimen progressed): increased sensitivity to both mechanical and thermal stimuli
- other withdrawal phenotypes (jumping, wet-dog shaking, teeth chattering, diarrhea) ([1]; tail-irradiated mice, upon naloxone injection, 10 mg/kg): not observed acutely
- jumping behavior [2]: only group to show any jumping behavior at all
- occurrences of wet dog shakes, teeth chattering, paw tremoring, grooming and rearing ([2]; compared to all other groups): significantly more
- change in plasma beta-endorphin levels ([3]; mock-exposed mice, 10 mg/kg): no increase in plasma beta-endorphin levels
- change in plasma β-endorphin ([3]; tail-irradiated mice, 10 mg/kg before behavioral testing, over the radiation regimen): most dramatic increase in plasma β-endorphin; also recorded: elevations in systemic beta-endorphin over and above the elevation caused by tail radiation alone
